The values below come from US20230339991A1, “HYPOXIA-ACTIVATED DNA ALKYLATING AGENT AND MEDICAL USE THEREOF” (ASCENTAWITS PHARMACEUTICALS, LTD., priority 2020, published 2023).

Molecules are shown by their SMILES. Like-named read-outs stand apart in the source and are kept apart here.

A short description of data set [1]: Liver microsome stability, monkey. As to the method:
1) Two individual experiments were performed.
1a) With NADPH: 10 μL of 20 mg/mL liver microsomes and 40 μL of 10 mM NADPH were added to the culture solution. The final concentrations of microsomes and NADPH were 0.5 mg/mL and 1 mM, respectively.
1b) Without NADPH: 10 μL of 20 mg/mL liver microsomes and 40 μL of ultrapure H2O were added to the culture solution. The final concentration of microsomes was 0.5 mg/mL.
3) 50 μL of aliquots were taken from the reaction solution at 0 min and 30 min. The reaction was terminated by adding 4 volumes of cold acetonitrile and four internal standards (IS, 100 nM alprazolam, 200 nM caffeine, 200 nM labetalol and 2 μM ketoprofen). The samples were centrifuged at 3, 220×g for 40 min. The aliquots of 100 μL of supernatant were mixed with 100 μL of ultrapure H2O and then used for LC-MS/MS analysis. All experiments were performed in duplicate.

Another data set relates to NCI-H1944. The data set can be described thus: Cytotoxicity, NSCLC cell line NCI-H1944. The data set is classed as cell-based. To be noted: Homo sapiens. As to the method:
(§1) Compounds were exposed at various concentrations for 72 hours, followed by a wash step. Fresh medium was added for growth. The cell was stained to determine the cell survival rate and compared with controls treated with medium only.
(§2) In particular, exponentially grown cells were inoculated in 96-well plates at a density of 2×10^3 cells/100 μl/well and incubated for 24 hours at 37° C. and under the conditions of 5% CO2, 95% air and 100% relative humidity before addition of 99 μl of culture solution. The compounds were dissolved in 100% DMSO at 200 times of the desired final test concentration. When the drug was added, an aliquot of 1 μl of the compound at the specified concentration was added to microwells already containing 199 μl of medium to obtain the reported final drug concentration. After adding the drug, plates were incubated for an additional 72 hours at 37° C., 5% CO2, 95% air and 100% relative humidity. The cell assay plate was left to balance for 30 minutes at room temperature and 100 μL of medium was removed from per well. 100 μl CTG reagent (CelltiterGlo kit) was added into each well. The plate was placed on a fast shaker and shaked for 2 min, and kept in dark at room temperature for 30 min. The chemiluminescence signal value was read by Envision instrument. […]

A further data set deals with NCI-H2228. In words: Cytotoxicity, NSCLC cell line NCI-H2228. The data set is classed as cell-based. The note with it: Homo sapiens. As to the method: as §1, §2
The next data set concerns NCIH1755. In words: Cytotoxicity, NSCLC cell line NCIH1755. The data set is classed as cell-based. To be noted: Homo sapiens, NCI-H1755. The protocol:
as §1, §2

Another data set has as its system NCI-H1563. In words: Cytotoxicity, NSCLC cell line NCI-H1563. The data set is classed as cell-based. The note with it: Homo sapiens. As to the method: as §1, §2
The next data set relates to CAL12T. In words: Cytotoxicity, NSCLC cell line CAL12T. The data set is classed as cell-based. To be noted: Homo sapiens, CAL-12T. As to the method:
as §1, §2

The next data set relates to NCI-H1792. The data set can be described thus: Cytotoxicity, NSCLC cell line NCI-H1792. The data set is classed as cell-based. The note with it: Homo sapiens. The protocol: as §1, §2
Another data set has as its system KP-2. The data set can be described thus: Cytotoxicity, pancreatic cancer PA cells KP-2. The data set is classed as cell-based. To be noted: Homo sapiens. As to the method:
as §1, §2

The next data set has as its system KP-3. In words: Cytotoxicity, pancreatic cancer PA cells KP-3. The note with it: Homo sapiens. It is filed as cell-based. As to the method:
as §1, §2

A further data set deals with Capan-1. The data set can be described thus: Cytotoxicity, pancreatic cancer PA cells Capan-1. It is filed as cell-based. The note with it: Homo sapiens. As to the method:
as §1, §2

The test system of the next data set is Panc 10.05. The data set can be described thus: Cytotoxicity, pancreatic cancer PA cells Panc 10.05. The data set is classed as cell-based. The note with it: Homo sapiens, Panc1005. The protocol:
as §1, §2

For another data set, the system named is PANC-1. The data set can be described thus: Cytotoxicity, pancreatic cancer PA cells PANC-1. The data set is classed as cell-based. To be noted: Homo sapiens. The protocol:
as §1, §2

Data set [2] relates to human lung cancer NCI-H460 subcutaneous xenograft. The data set can be described thus: Human lung cancer NCI-H460 subcutaneous xenograft model, compound A. The data set is classed as in vivo, BALB/c nude mice. The protocol:
BALB/c nude mice were subcutaneously inoculated with human lung cancer NCI-H460 cells to establish human lung cancer subcutaneous transplantation tumor model. […] The test drug compound A 40 mg/kg group was administered by tail vein injection once every three weeks for 2 times, and observed for one week after the second administration. The test drug compound A 20 mg/kg group was administered by intraperitoneal injection once a day for 5 days continuously, and observed for 24 days. […] The administration dosage of compound A was determined according to the MTD test.
The tumor volumes of mice from each group were measured at different days and the average values were taken.

The subject of data set [3] is human lung cancer NCI-H460-Luc2 intracranial transplantation tumor. To be noted: for mean biofluorescence value / TGI: 11 days after grouping. The protocol:
BALB/c nude mice were inoculated intracranially with human lung cancer NCI-H460-Luc2 cells to establish human lung cancer intracranial transplantation tumor model. […] The relative tumor inhibition rate TGI (%) was calculated based on tumor biofluorescence value and the efficacy was evaluated.

Data set [4] relates to HuPrime pancreatic cancer PA3546 subcutaneous xenograft PDX tumor. The data set can be described thus: PA3546 human pancreatic cancer subcutaneous PDX model. The note with it: for relative tumor inhibition rate TGI (%): Day 25.
Method: BALB/c nude mice were subcutaneously inoculated with HuPrime® model PA3546 tumor blocks to establish human pancreatic cancer subcutaneous transplantation tumor model. […] Efficacy was evaluated according to the relative tumor inhibition rate TGI (%), and safety was evaluated according to the change in body weight and the death of animals.

For `CC(OP(=O)(N1CC1)N1CC1)c1ccc([N+](=O)[O-])c2ccccc12` (stereo not drawn) [Compound D], the “Remaining percentage after 30 minutes” value in [1] (with NADPH) came to 0.86%; in data set [1] (without NADPH), 95.89%.

For the compound `O=[N+]([O-])c1ccc(C(OP(=O)(N2CC2)N2CC2)C(F)(F)F)c2ccccc12` (racemic) [Compound A], the IC50 (as a rule, the point on the concentration scale where inhibition reaches its midpoint) was found to be 0.538 µM in the data set on NCI-H1944; 0.264 µM in the data set on NCI-H2228; 6.46 µM in the data set with NCIH1755; 4.45 µM in the data set on NCI-H1563; 30.5 µM with CAL12T; 4.79 µM in the data set on NCI-H1792. For the same compound, the IC50 with KP-2 stood at 29.7 µM; in the data set with KP-3, 26.2 µM; in the data set with Capan-1 it was 5.97 µM; in the data set on Panc 10.05, 27.7 µM; in the data set on PANC-1, 29.3 µM. In addition, the “relative tumor inhibition rate TGI (%)” value in data set [2] (40 mg/kg, Q3W×2, IV, Day31) came to 66.87%. Also, the tumor volume was determined as 184.06 mm^3 in [2] (Test Group 7, 40 mg/kg IV, day 10); 153.75 mm^3 in [2] (Test Group 7, 40 mg/kg IV, day 14); 159.72 mm^3 in data set [2] (Test Group 7, 40 mg/kg IV, day 17); 218.13 mm^3 in [2] (Test Group 7, 40 mg/kg IV, day 21); 291.07 mm^3 in [2] (Test Group 7, 40 mg/kg IV, day 24); 520.17 mm^3 in data set [2] (Test Group 7, 40 mg/kg IV, day 28). For the same compound, the tumor volume in [2] (Test Group 7, 40 mg/kg IV, day 31) is reported as 580.70 mm^3; in data set [2] (Test Group 7, 40 mg/kg IV, day 35) it was 447.32 mm^3; in data set [2] (Test Group 7, 40 mg/kg, Q3W×2, IV, day 7), 143.84 mm^3; in data set [2] (Test Group 8, 20 mg/kg IP, day 10), 173.09 mm^3; in [2] (Test Group 8, 20 mg/kg IP, day 14), 152.99 mm^3; in data set [2] (Test Group 8, 20 mg/kg IP, day 17) it was 130.06 mm^3. The tumor volume in data set [2] (Test Group 8, 20 mg/kg IP, day 21) was 129.66 mm^3; in data set [2] (Test Group 8, 20 mg/kg IP, day 24), 164.63 mm^3; in data set [2] (Test Group 8, 20 mg/kg IP, day 28), 272.20 mm^3; in data set [2] (Test Group 8, 20 mg/kg IP, day 31), 447.50 mm^3; in [2] (Test Group 8, 20 mg/kg IP, day 35), 651.58 mm^3; in data set [2] (Test Group 8, 20 mg/kg, QD×5×1 week, IP, day 7), 144.63 mm^3.

Take `O=[N+]([O-])c1ccc([C@@H](OP(=O)(N2CC2)N2CC2)C(F)(F)F)c2ccccc12` (single isomer, unassigned) [Compound C]: the figures for the mean biofluorescence value in data set [3] (10 mg/kg tail vein QW×3), in data set [3] (20 mg/kg tail vein QW×3) and in data set [3] (40 mg/kg tail vein QW×3) were 7.07E+05 photon/second, 1.79E+05 photon/second and 1.04E+05 photon/second, respectively. The figures for the TGI in [3] (10 mg/kg tail vein), in [3] (20 mg/kg tail vein) and in data set [3] (40 mg/kg tail vein) were 99.82%, 100.03% and 100.05%, respectively. In addition, in data set [3] (single drug, 10-40 mg/kg), the tolerability result is given as “well tolerated”. The “body weight loss / tolerability” value in data set [4] (10 mg/kg (Group 3)) is “no significant body weight loss and were well tolerated”. In addition, the “relative tumor inhibition rate TGI (%)” value is reported as 32.35% in [4] (10 mg/kg tail vein QW×3), 36.79% in data set [4] (20 mg/kg tail vein QW×3) and 35.93% in data set [4] (40 mg/kg tail vein QW×3). Moreover, the “body weight loss / death” value in [4] (20 mg/kg (Group 4)) was “significant weight loss and even death of individual or part of mice”; in data set [4] (40 mg/kg (Group 5)), “significant weight loss and even death of individual or part of mice”.
